In patent US4897344A, “Method of hardening gelatin” (Fuji Photo Film Co., Ltd., priority 1987, dated 1990):
Values after ≈ are worked out from the molar mass of the structure shown.

Assay: Solubility in water at 25 °C (weight recovered undissolved and weight dissolved after stirring 5 hours)
Type: physicochemical
Conditions: for Weight Recovered: undissolved portion, 10 grams in 100 ml of water, 5 hours stirring; for solubility thermodynamic at 5 h: water, head prints 10 ml, text prints 100 ml
Protocol: Ten grams of Compound 1 of this invention and 10 grams of Comparative Compound (I) disclosed (as illustrative compound 3) in Japanese Patent Application No. 41221/78 for comparative purposes were each separately dissolved in 100 ml of water and stirred for 5 hours while maintaining a temperature of 25° C. The undissolved portion was recovered by filtration and the weight of the recovered material was determined after drying. Comparative Compound (I)
The weights of the compounds recovered and the amounts dissolved in 100 ml of water at 25° C. calculated on the basis of the weights recovered are shown in Table 1.

Weight Recovered	solubility thermodynamic at 5 h	solubility in water relative to Comparative Compound (I) (in words)	SMILES
8.0 grams	20 mg/mL (≈ 61.7 mM)	–	C=CS(=O)(=O)CC(=O)NCCNC(=O)CS(=O)(=O)C=C [Comparative Compound (I), reference compound]
0 grams	> 100 mg/mL	much better solubility in water	C=CS(=O)(=O)C(CCc1ccc(S(=O)(=O)O)cc1)S(=O)(=O)C=C [Compound 1]
